In article PMC7956174, “Probing the Role of the Conserved Arg174 in Formate Dehydrogenase by Chemical Modification and Site-Directed Mutagenesis” (Molecules, 2021):
Where two headings read alike, the source gives them in different places.

How the values were obtained:
[1] = target: T1, CbFDH (Candida boidinii formate dehydrogenase) ([Candida] boidinii, UniProt O13437); assay: steady-state inhibition kinetics; type: biochemical
T1 construct: gene FDH1; no tag told
T1 sequence (O13437 1-364): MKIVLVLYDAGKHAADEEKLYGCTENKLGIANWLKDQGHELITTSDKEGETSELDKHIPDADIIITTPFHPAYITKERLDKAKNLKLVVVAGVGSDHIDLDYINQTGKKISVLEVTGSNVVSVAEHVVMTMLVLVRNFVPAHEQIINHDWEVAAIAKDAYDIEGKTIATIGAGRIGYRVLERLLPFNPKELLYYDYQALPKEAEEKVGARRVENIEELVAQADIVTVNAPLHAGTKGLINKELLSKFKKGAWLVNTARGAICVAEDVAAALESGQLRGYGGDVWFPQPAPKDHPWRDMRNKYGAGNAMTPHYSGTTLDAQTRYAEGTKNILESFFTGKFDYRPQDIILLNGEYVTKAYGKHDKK
From the text: steady-state inhibition kinetics on CbFDH (Candida boidinii formate dehydrogenase)

steady-state kinetics = substrate: O=CO; assay: steady-state kinetics; type: biochemical, [Candida] boidinii; settings: 0.1 M potassium phosphate pH 7.5, 25 °C, co-substrate NAD+
From the text: steady-state kinetics on CbFDH (Candida boidinii formate dehydrogenase)

Work on NC(=O)C1=CN([C@@H]2O[C@H](COP(=O)(O)OP(=O)(O)OC[C@H]3O[C@@H](n4cnc5c(N)ncnc54)[C@H](O)[C@@H]3O)[C@@H](O)[C@H]2O)C=CC1 [NADH] yielded a Ki ([1]; read-out: Ki (mM) (NADH)) of 0.03 ± 0.005 mM.

For Nc1ncnc2c1ncn2[C@@H]1O[C@H](COP(=O)(O)O)[C@@H](O)[C@H]1O [AMP], the Ki ([1]; read-out: Ki (mM) (AMP)) was 1.6 ± 0.1 mM.

B1: CbFDH (Candida boidinii formate dehydrogenase) ([Candida] boidinii) (protein)
chain: MKIVLVLYDAGKHAADEEKLYGCTENKLGIANWLKDQGHELITTSDKEGETSELDKHIPDADIIITTPFHPAYITKERLDKAKNLKLVVVAGVGSDHIDLDYINQTGKKISVLEVTGSNVVSVAEHVVMTMLVLVRNFVPAHEQIINHDWEVAAIAKDAYDIEGKTIATIGAGRIGYRVLERLLPFNPKELLYYDYQALPKEAEEKVGARRVENIEELVAQADIVTVNAPLHAGTKGLINKELLSKFKKGAWLVNTARGAICVAEDVAAALESGQLRGYGGDVWFPQPAPKDHPWRDMRNKYGAGNAMTPHYSGTTLDAQTRYAEGTKNILESFFTGKFDYRPQDIILLNGEYVTKAYGKHDKK
notes: no tag told
B1 showed a Km (steady-state kinetics) of 2400 ± 100 µM.
